Patent US11185527B2, “Methods and compositions relating to steroid hormone receptor-dependent cancers” (Wayne State University, priority 2017, dated 2021)

Columns and labels:
Test in all cases: Cell monolayer growth assay (MTT)
22Rv1 cells = assay type: cell-based, human; settings: enzalutamide up to 20 uM
Procedure: Twenty four hours after plating the 22Rv1 cells, they were treated with the indicated concentrations of KCI807 (FIG. 4C) or with the indicated concentrations of enzalutamide (ENZ) (FIG. 4D).
Twenty four hours after plating the cells, they were treated with the indicated concentrations of the compound.
FIG. 16D is a graph showing the effect of 5′-Fluoro-5,3′-Dihydroxyflavone at various concentrations on growth of 22Rv1 cells.
(§1) Cells were trypsinized and 3000-4000 cells/well were seeded in 96-well plates coated with poly-D-lysine. The cells were seeded in phenol red-free medium supplemented with 10% FBS, 100 units/ml penicillin, 100 μg/ml streptomycin, 2 mM L-glutamine mixture and sodium pyruvate (1 mM) for LNCaP cells and phenol red-free medium supplemented with 10% FBS, 100 units/ml penicillin, 100 μg/ml streptomycin and 2 mM L-glutamine mixture for VCaP, 22Rv1, DU145, HeLa, HEK293 and H1650 cells. The cells were grown at 37° C. in 5% CO2. Twenty four hours after seeding in the 96-well plates, the cells were treated with the indicated concentration of KCI807 or DMSO (vehicle). The cells were re-treated on Day 3 by removing half the volume of medium and replacing it with fresh treated medium. Cell viability was determined using the MTT assay from day zero until day five. MTT (10 μL, 5 mg/mL) was added to each well and incubated for 2h at 37° C. The formazan crystal sediments were dissolved in 100 μL of DMSO, and the absorbance at 570 nm was measured using the BioTek Synergy 2 Microplate Reader (BioTek, Winooski, Vt.). The assay was conducted in sextuplicate wells and values were normalized to day zero.

LNCaP cells = assay type: cell-based; settings: enzalutamide up to 20 uM
Procedure: as §1, with “Twenty four hours after plating the LNCaP cells, they were treated with the indicated concentrations of KCI807 (FIG. 4E) or with the indicated concentrations of enzalutamide (ENZ) (FIG. 4F). […] Cells” for “Cells”

VCaP cells = assay type: cell-based
Procedure: as §1, with “Twenty four hours after plating the VCaP cells, they were treated with the indicated concentrations of KCI807 (FIG. 4G) or with the indicated concentrations of enzalutamide (ENZ) (FIG. 4H). […] Cells” for “Cells”

Row | SMILES | growth inhibition of 22Rv1 cells (22Rv1 cells) | growth inhibition of LNCaP cells (LNCaP cells) | growth inhibition of VCaP cells (VCaP cells)
1 | O=c1cc(-c2cccc(O)c2)oc2cccc(O)c12 [KCI807, 5,3′-dihydroxyflavone] | completely inhibited cell growth | completely inhibited cell growth | most sensitive
2 | O=c1cc(-c2cc(O)cc(F)c2)oc2cccc(O)c12 [5′-fluoro-5,3′-dihydroxyflavone] | inhibited growth | inhibited growth | inhibited growth
3 | CNC(=O)c1ccc(N2C(=S)N(c3ccc(C#N)c(C(F)(F)F)c3)C(=O)C2(C)C)cc1F [enzalutamide] | only showed partial effects | only showed partial effects | most sensitive
